Assay results taken from ChEMBL document CHEMBL3525932, “Comparison of metabolism of sesamin and episesamin by drug-metabolizing enzymes in human liver” (Drug Metab Dispos, 2012).

What was measured:
Cytochrome P450 2C9 [1] = biological target: T1, Cytochrome P450 2C9 (Homo sapiens, UniProt P11712); assay: Activity of recombinant human CYP2C9 expressed in Saccharomyces cerevisiae AH22 cells assessed as enzyme-mediated sesamin dicatechol formation after 15 mins by HPLC analysis in presence of NADPH; format: ADME, cell-based; settings: ah22, 0.25 h
T1 sequence (P11712 whole entry): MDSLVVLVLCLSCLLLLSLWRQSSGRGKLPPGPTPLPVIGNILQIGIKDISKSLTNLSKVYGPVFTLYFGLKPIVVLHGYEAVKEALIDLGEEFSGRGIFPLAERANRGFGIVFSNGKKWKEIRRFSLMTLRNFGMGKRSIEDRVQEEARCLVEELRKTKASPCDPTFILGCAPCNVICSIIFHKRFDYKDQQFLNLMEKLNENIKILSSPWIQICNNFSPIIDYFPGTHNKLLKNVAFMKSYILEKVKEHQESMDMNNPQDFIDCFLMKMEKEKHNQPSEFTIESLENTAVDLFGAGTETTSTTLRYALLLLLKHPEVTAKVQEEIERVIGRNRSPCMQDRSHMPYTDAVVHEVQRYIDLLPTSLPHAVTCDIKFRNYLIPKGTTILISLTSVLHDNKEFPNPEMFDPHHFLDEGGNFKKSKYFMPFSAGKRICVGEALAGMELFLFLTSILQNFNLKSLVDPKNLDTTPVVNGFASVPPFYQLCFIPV

[2] = Drug metabolism in human liver microsomes assessed as CYP450-mediated catecholization per mg of protein after 10 to 30 mins by HPLC analysis in presence of NADPH; format: ADME
[3] = Drug metabolism in Sprague-Dawley rat liver microsomes assessed as UGT-mediated glucuronidation per mg of protein after 10 to 30 mins by HPLC analysis in presence of UDP-GlcUA; format: ADME
CYP450 [4] = assay: Drug metabolism in human liver microsomes assessed as CYP450-mediated catecholization after 10 to 30 mins by HPLC analysis in presence of NADPH; format: ADME
[5] = Drug metabolism in Sprague-Dawley rat liver microsomes assessed as CYP450-mediated catecholization per mg of protein after 10 to 30 mins by HPLC analysis in presence of NADPH; format: ADME
Cytochrome P450 2C19 [6] = biological target: T2, Cytochrome P450 2C19 (Homo sapiens, UniProt P33261); assay: Activity of recombinant human CYP2C19 expressed in Saccharomyces cerevisiae AH22 cells assessed as enzyme-mediated compound formation treated with sesamin at 2 to 20 uM after 15 mins by HPLC analysis in presence of NADPH; format: ADME, cell-based; settings: ah22, 0.25 h
T2 sequence (P33261 whole entry): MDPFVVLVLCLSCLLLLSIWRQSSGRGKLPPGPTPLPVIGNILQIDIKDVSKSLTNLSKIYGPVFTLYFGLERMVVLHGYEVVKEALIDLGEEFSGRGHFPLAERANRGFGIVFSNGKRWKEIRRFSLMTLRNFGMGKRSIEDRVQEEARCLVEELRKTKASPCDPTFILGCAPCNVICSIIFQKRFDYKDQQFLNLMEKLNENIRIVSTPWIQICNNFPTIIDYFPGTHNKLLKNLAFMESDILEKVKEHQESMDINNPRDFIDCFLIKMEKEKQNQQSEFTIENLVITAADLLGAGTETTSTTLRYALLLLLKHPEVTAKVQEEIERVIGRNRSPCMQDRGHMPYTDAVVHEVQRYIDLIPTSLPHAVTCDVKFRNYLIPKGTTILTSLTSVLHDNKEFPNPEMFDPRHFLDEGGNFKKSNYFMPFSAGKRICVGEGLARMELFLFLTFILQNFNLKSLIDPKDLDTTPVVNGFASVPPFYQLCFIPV

CYP450 [7] = assay: Drug metabolism in Sprague-Dawley rat liver microsomes assessed as CYP450-mediated catecholization after 10 to 30 mins by HPLC analysis in presence of NADPH; format: ADME
UGT [8] = assay: Drug metabolism in human liver microsomes assessed as UGT-mediated glucuronidation after 10 to 30 mins by HPLC analysis in presence of UDP-GlcUA; format: ADME
UGT [9] = assay: Drug metabolism in Sprague-Dawley rat liver microsomes assessed as UGT-mediated glucuronidation after 10 to 30 mins by HPLC analysis in presence of UDP-GlcUA; format: ADME
Liver microsome [10] = assay: Drug level in human liver microsomes treated with sesamin after 30 mins by HPLC analysis in presence of NADPH; format: ADME; settings: 0.5 h
Cytochrome P450 2C19 [11] = biological target: T2, Cytochrome P450 2C19; assay: Activity of recombinant human CYP2C19 expressed in Saccharomyces cerevisiae AH22 cells assessed as enzyme-mediated sesamin dicatechol formation after 15 mins by HPLC analysis in presence of NADPH; format: ADME, cell-based; settings: ah22, 0.25 h
[12] = Drug metabolism in human liver microsomes assessed as UGT-mediated glucuronidation per mg of protein after 10 to 30 mins by HPLC analysis in presence of UDP-GlcUA; format: ADME
Cytochrome P450 2C9 [13] = biological target: T1, Cytochrome P450 2C9; assay: Activity of recombinant human CYP2C9 expressed in Saccharomyces cerevisiae AH22 cells assessed as enzyme-mediated episesamin dicatechol formation at 2 to 75 uM after 15 mins by HPLC analysis in presence of NADPH; format: ADME, cell-based; settings: ah22, 0.25 h
Cytochrome P450 2C9 [14] = biological target: T1, Cytochrome P450 2C9; assay: Activity of recombinant human CYP2C9 expressed in Saccharomyces cerevisiae AH22 cells assessed as enzyme-mediated (S)-episesamin monocatechol formation at 2 to 75 uM after 15 mins by HPLC analysis in presence of NADPH; format: ADME, cell-based; settings: ah22, 0.25 h
Liver microsome [15] = assay: Drug metabolism in human liver microsomes assessed as (R)-episesamin monocatechol formation at 5 uM after 30 mins by HPLC analysis in presence of NADPH; format: ADME; settings: 0.5 h
Liver microsome [16] = assay: Drug metabolism in human liver microsomes assessed as (R)-episesamin monocatechol formation at 2 to 75 uM after 15 mins by HPLC analysis in presence of NADPH; format: ADME; settings: 0.25 h
Liver microsome [17] = assay: Drug metabolism in human liver microsomes assessed as (S)-episesamin monocatechol formation at 2 to 75 uM after 15 mins by HPLC analysis in presence of NADPH; format: ADME; settings: 0.25 h
Cytochrome P450 2E1 = Cytochrome P450 2E1 (Homo sapiens, UniProt P05181); assay: Activity of recombinant human CYP2E1 expressed in Saccharomyces cerevisiae AH22 cells assessed as enzyme-mediated catecholization at 2 to 75 uM after 15 mins by HPLC analysis in presence of NADPH; format: ADME, cell-based; settings: ah22, 0.25 h
Chain of Cytochrome P450 2E1 (P05181 whole entry): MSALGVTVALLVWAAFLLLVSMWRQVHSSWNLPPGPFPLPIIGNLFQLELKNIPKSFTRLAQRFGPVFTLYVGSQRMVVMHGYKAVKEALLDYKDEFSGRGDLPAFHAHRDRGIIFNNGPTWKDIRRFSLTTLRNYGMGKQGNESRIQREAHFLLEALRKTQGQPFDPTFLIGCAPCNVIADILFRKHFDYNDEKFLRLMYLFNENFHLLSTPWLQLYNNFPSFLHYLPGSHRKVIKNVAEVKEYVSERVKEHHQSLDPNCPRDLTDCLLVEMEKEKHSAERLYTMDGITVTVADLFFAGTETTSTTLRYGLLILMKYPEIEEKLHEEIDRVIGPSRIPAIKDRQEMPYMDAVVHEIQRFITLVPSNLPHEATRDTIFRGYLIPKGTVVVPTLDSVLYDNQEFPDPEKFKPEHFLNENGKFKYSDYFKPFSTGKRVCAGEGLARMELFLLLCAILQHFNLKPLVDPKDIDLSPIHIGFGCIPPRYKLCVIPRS

Liver microsome [18] = assay: Drug metabolism in human liver microsomes assessed as episesamin monocatecholization at 5 uM after 15 mins by HPLC analysis in presence of NADPH and CYP2C9 inhibitor sulfaphenazole; format: ADME; settings: 0.25 h
Cytochrome P450 2C19 [19] = biological target: T2, Cytochrome P450 2C19; assay: Activity of recombinant human CYP2C19 expressed in Saccharomyces cerevisiae AH22 cells assessed as enzyme-mediated (R)-episesamin monocatechol formation at 2 to 75 uM after 15 mins by HPLC analysis in presence of NADPH; format: ADME, cell-based; settings: ah22, 0.25 h
Liver microsome [20] = assay: Drug metabolism in human liver microsomes assessed as (S)-episesamin monocatechol formation at 5 uM after 15 mins by HPLC analysis in presence of NADPH and anti-CYP1A2 antibody; format: ADME; settings: 0.25 h
Cytochrome P450 1A2 [21] = biological target: T3, Cytochrome P450 1A2 (Homo sapiens, UniProt P05177); assay: Activity of recombinant human CYP1A2 expressed in Saccharomyces cerevisiae AH22 cells assessed as enzyme-mediated episesamin dicatechol formation at 2 to 75 uM after 15 mins by HPLC analysis in presence of NADPH; format: ADME, cell-based; settings: ah22, 0.25 h
T3 sequence (P05177 whole entry): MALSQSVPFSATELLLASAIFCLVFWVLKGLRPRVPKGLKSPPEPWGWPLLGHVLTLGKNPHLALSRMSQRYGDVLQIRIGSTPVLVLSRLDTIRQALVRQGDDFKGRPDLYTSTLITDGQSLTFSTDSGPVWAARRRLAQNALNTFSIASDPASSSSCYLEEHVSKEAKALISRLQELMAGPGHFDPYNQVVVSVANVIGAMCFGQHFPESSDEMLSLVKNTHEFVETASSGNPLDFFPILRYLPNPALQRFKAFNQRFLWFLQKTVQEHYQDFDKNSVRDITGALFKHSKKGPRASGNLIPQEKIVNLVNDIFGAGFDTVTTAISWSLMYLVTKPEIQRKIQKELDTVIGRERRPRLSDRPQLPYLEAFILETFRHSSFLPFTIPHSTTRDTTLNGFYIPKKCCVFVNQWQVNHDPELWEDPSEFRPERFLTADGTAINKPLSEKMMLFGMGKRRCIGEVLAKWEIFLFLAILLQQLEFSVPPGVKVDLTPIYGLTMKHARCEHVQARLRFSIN

Liver microsome [22] = assay: Drug metabolism in human liver microsomes assessed as (S)-episesamin monocatechol formation at 5 uM after 15 mins by HPLC analysis in presence of NADPH and anti-CYP2C9 antibody; format: ADME; settings: 0.25 h
Liver microsome [23] = assay: Drug metabolism in human liver microsomes assessed as episesamin dicatechol formation at 2 to 75 uM after 15 mins by HPLC analysis in presence of NADPH; format: ADME; settings: 0.25 h
Cytochrome P450 2C19 [24] = biological target: T2, Cytochrome P450 2C19; assay: Activity of recombinant human CYP2C19 expressed in Saccharomyces cerevisiae AH22 cells assessed as enzyme-mediated (S)-episesamin monocatechol formation at 2 to 75 uM after 15 mins by HPLC analysis in presence of NADPH; format: ADME, cell-based; settings: ah22, 0.25 h
Cytochrome P450 2C9 [25] = biological target: T1, Cytochrome P450 2C9; assay: Mechanism-based inhibition of recombinant human CYP2C9 expressed in microsomes isolated from Saccharomyces cerevisiae AH22 cells assessed as diclofenac 4'-hydroxylation up to 50 uM preincubated for 5 to 10 mins followed by substrate addition measured by HPLC analysis; format: ADME, cell-based
Liver microsome [26] = assay: Drug metabolism in human liver microsomes assessed as episesamin monocatecholization at 5 uM after 15 mins by HPLC analysis in presence of NADPH and CYP2C19 inhibitor (+)-N-3-benzylnirvanol; format: ADME; settings: 0.25 h
Liver microsome [27] = assay: Drug metabolism in human liver microsomes assessed as (R)-episesamin monocatechol formation at 5 uM after 15 mins by HPLC analysis in presence of NADPH and anti-CYP2C9 antibody; format: ADME; settings: 0.25 h
Liver microsome [28] = assay: Drug metabolism in human liver microsomes assessed as (R)-episesamin monocatechol formation at 5 uM after 15 mins by HPLC analysis in presence of NADPH and anti-CYP1A2 antibody; format: ADME; settings: 0.25 h
Cytochrome P450 1A2 [29] = biological target: T3, Cytochrome P450 1A2; assay: Activity of recombinant human CYP1A2 expressed in Saccharomyces cerevisiae AH22 cells assessed as enzyme-mediated (R)-episesamin monocatechol formation at 2 to 75 uM after 15 mins by HPLC analysis in presence of NADPH; format: ADME, cell-based; settings: ah22, 0.25 h
Cytochrome P450 2D6 = Cytochrome P450 2D6 (Homo sapiens, UniProt P10635); assay: Activity of recombinant human CYP2D6 expressed in Saccharomyces cerevisiae AH22 cells assessed as enzyme-mediated catecholization at 2 to 75 uM after 15 mins by HPLC analysis in presence of NADPH; format: ADME, cell-based; settings: ah22, 0.25 h
Chain of Cytochrome P450 2D6 (P10635 whole entry): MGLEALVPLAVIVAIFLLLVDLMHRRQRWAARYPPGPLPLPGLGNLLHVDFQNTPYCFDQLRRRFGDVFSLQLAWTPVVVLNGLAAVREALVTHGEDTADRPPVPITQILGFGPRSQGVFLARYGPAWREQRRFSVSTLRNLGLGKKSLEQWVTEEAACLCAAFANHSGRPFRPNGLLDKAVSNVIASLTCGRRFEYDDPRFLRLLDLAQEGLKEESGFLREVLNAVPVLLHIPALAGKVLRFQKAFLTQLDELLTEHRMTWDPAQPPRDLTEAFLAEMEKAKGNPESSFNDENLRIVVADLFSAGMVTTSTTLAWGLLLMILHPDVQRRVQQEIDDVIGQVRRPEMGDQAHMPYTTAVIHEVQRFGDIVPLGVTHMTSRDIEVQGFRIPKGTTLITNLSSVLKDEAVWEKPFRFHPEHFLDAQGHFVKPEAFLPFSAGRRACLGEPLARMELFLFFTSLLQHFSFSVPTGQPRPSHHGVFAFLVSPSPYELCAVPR

Liver microsome [30] = assay: Drug metabolism in human liver microsomes assessed as (S)-episesamin monocatechol formation at 5 uM after 30 mins by HPLC analysis in presence of NADPH; format: ADME; settings: 0.5 h
CYP2C9 [31] = biological target: T4, CYP2C9 (Homo sapiens, UniProt P11712); assay: Ratio of Kinact to Ki(app) for mechanism-based inhibition of recombinant human CYP2C9 expressed in microsomes isolated from Saccharomyces cerevisiae AH22 cells assessed as diclofenac 4'-hydroxylation preincubated for 5 to 10 mins followed by substrate addition measured after 15 mins by HPLC analysis; format: ADME, cell-based; settings: probe diclofenac (4'-hydroxylation)
T4 sequence (P11712 whole entry): as the sequence (P11712 whole entry) above

Liver microsome [32] = assay: Drug metabolism in heat-inactivated human liver microsomes assessed as episesamin dicatechol formation at 2 to 75 uM after 15 mins by HPLC analysis in presence of NADPH; format: ADME; settings: 0.25 h
Cytochrome P450 2C9 [33] = biological target: T1, Cytochrome P450 2C9; assay: (§1) Mechanism-based inhibition of recombinant human CYP2C9 expressed in microsomes isolated from Saccharomyces cerevisiae AH22 cells assessed as diclofenac 4'-hydroxylation preincubated for 5 to 10 mins followed by substrate addition measured after 15 mins by HPLC analysis; format: ADME, cell-based
CYP2C9 [34] = biological target: T4, CYP2C9; assay: as §1; format: ADME, cell-based; settings: human, probe diclofenac (4'-hydroxylation)
Cytochrome P450 2C9 [35] = biological target: T1, Cytochrome P450 2C9; assay: Activity of recombinant human CYP2C9 expressed in Saccharomyces cerevisiae AH22 cells assessed as enzyme-mediated (R)-episesamin monocatechol formation at 2 to 75 uM after 15 mins by HPLC analysis in presence of NADPH; format: ADME, cell-based; settings: ah22, 0.25 h
Cytochrome P450 2C19 [36] = biological target: T2, Cytochrome P450 2C19; assay: Activity of recombinant human CYP2C19 expressed in Saccharomyces cerevisiae AH22 cells assessed as enzyme-mediated episesamin dicatechol formation at 2 to 75 uM after 15 mins by HPLC analysis in presence of NADPH; format: ADME, cell-based; settings: ah22, 0.25 h
Cytochrome P450 3A4 = Cytochrome P450 3A4 (Homo sapiens, UniProt P08684); assay: Activity of recombinant human CYP3A4 expressed in Saccharomyces cerevisiae AH22 cells assessed as enzyme-mediated catecholization at 2 to 75 uM after 15 mins by HPLC analysis in presence of NADPH; format: ADME, cell-based; settings: ah22, 0.25 h
Chain of Cytochrome P450 3A4 (P08684 whole entry): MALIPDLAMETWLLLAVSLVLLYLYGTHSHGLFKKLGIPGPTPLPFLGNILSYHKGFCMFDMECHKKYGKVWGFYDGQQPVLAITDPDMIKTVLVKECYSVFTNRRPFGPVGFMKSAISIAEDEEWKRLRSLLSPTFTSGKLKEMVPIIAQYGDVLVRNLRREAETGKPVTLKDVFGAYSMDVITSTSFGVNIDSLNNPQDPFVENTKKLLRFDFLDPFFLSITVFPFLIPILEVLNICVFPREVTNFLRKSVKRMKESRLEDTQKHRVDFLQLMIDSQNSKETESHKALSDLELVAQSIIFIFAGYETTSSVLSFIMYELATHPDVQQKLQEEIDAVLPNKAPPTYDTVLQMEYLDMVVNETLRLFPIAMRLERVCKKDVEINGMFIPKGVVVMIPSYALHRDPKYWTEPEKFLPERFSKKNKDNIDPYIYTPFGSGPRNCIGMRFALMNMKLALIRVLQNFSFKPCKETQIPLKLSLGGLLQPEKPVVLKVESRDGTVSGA

Oc1ccc([C@H]2OC[C@H]3[C@@H]2CO[C@@H]3c2ccc3c(c2)OCO3)cc1O
Drug metabolism (Cytochrome P450 2C9 [1]): 0.83 nmol/min
Vmax [2]: 0.44 nmol/min/mg
Vmax [3]: 1.1 nmol/min/mg
Km (CYP450 [4]): 18.8 µM
Vmax [5]: 3.7 nmol/min/mg
Drug metabolism (Cytochrome P450 2C19 [6]): metabolite_detected
Km (CYP450 [7]): 5.3 µM
Km (UGT [8]): 18 µM
Km (UGT [9]): 20.3 µM
Drug metabolism (Liver microsome [10]): metabolite_detected
Drug metabolism (Cytochrome P450 2C19 [11]): 10.4 nmol/min
Vmax [12]: 6 nmol/min/mg

c1cc2c(cc1[C@H]1OC[C@H]3[C@@H]1CO[C@H]3c1ccc3c(c1)OCO3)OCO2 [ASARININ]
Drug metabolism (Cytochrome P450 2C9 [13]): metabolite_not_detected
Drug metabolism (Cytochrome P450 2C9 [14]): metabolite_detected
Drug metabolism (Liver microsome [15]): metabolite_detected
Vmax [2]: 0.4 nmol/min/mg
Drug metabolism (Liver microsome [16]): metabolite_detected
Km (CYP450 [4]): 13 µM
Drug metabolism (Liver microsome [17]): metabolite_detected
Drug metabolism (Cytochrome P450 2E1): metabolite_not_detected
Drug metabolism (Liver microsome [18]): metabolite_not_detected
Drug metabolism (Cytochrome P450 2C19 [19]): metabolite_detected
Drug metabolism (Liver microsome [20]): metabolite_detected
Vmax [5]: 6.3 nmol/min/mg
Drug metabolism (Cytochrome P450 1A2 [21]): metabolite_not_detected
Drug metabolism (Liver microsome [22]): metabolite_not_detected
Drug metabolism (Liver microsome [23]): metabolite_detected
Drug metabolism (Cytochrome P450 2C19 [24]): metabolite_detected
inhibition (INH) (Cytochrome P450 2C9 [25]): Dose-dependent effect
Drug metabolism (Liver microsome [26]): metabolite_detected
Drug metabolism (Liver microsome [27]): metabolite_not_detected
Drug metabolism (Liver microsome [28]): metabolite_not_detected
Drug metabolism (Cytochrome P450 1A2 [29]): metabolite_detected
Drug metabolism (Cytochrome P450 2D6): metabolite_not_detected
Drug metabolism (Liver microsome [30]): metabolite_detected
kinact/KI at 0.25 h (CYP2C9 [31]): 417 M⁻¹ s⁻¹
Drug metabolism (Liver microsome [32]): metabolite_not_detected
Km (CYP450 [7]): 16 µM
inhibition (INH) (Cytochrome P450 2C9 [33]; human, microsomes, 0.25 h): Dose-dependent effect
Ki (Cytochrome P450 2C9 [33]; read-out: Ki(app)): 6.8 µM
kinact at 0.25 h (CYP2C9 [34]): 0.00283 s⁻¹
Drug metabolism (Cytochrome P450 2C9 [35]): metabolite_detected
Drug metabolism (Cytochrome P450 2C19 [36]): metabolite_detected
Drug metabolism (Cytochrome P450 3A4): metabolite_not_detected
